Like-named read-outs stand apart in the source and are kept apart here.
Columns and labels:
[1] = target: T1, aorta of rat (Rattus norvegicus, UniProt P23944); test: cell-based
T1 sequence (P23944 1-561): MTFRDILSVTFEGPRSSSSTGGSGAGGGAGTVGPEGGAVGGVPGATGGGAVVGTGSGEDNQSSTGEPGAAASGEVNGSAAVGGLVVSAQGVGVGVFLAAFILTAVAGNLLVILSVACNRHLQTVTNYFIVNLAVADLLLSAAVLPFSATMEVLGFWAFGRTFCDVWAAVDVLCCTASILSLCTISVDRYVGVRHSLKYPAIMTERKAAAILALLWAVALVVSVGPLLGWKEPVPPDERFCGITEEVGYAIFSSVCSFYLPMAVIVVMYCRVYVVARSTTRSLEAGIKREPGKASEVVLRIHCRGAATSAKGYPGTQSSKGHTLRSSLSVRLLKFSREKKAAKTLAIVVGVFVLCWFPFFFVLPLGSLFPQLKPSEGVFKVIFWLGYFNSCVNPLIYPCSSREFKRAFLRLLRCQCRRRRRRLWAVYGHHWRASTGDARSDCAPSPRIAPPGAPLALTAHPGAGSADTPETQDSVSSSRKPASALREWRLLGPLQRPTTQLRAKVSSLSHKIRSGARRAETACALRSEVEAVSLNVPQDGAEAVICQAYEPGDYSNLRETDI

[2] = target: T2, right artrium of guinea pig (Cavia porcellus, UniProt H0W3H1); test: β-blocking effect: antagonism of increase of beat rate of right atrium of guinea pig caused by isoproterenol; type: cell-based
T2 construct: beat rate of a right artrium of guinea pig; from tissue; host or cells: guinea pig right atrium
T2 sequence (H0W3H1 1-470): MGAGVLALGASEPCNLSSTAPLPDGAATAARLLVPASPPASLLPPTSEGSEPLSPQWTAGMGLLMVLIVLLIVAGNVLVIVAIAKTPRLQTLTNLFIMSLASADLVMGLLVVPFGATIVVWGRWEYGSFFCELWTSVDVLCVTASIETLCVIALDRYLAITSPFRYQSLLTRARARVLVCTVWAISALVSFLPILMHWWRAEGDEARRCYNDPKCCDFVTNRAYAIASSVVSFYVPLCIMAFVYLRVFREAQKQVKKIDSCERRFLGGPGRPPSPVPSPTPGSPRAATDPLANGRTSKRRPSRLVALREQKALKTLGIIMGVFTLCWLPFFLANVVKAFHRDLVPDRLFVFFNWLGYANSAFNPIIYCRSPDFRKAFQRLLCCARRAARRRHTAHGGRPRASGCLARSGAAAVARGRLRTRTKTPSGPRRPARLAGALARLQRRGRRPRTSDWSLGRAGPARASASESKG
Protocol: This was evaluated in terms of the effect antagonizing an increase of beat rate of a right artrium of guinea pig caused by isoproterenol. Efficiency of blocking by the corresponding compound is expressed in pA2 value (see Van Bossum, Arch. int. Pharmacodyn. Ther. 143, 299, 1963).

[3] = test system: spontaneously hypertensive rats; test: Antihypertensive effect on the spontaneously hypertensive rats; type: in vivo, rat; settings: 30 mg/kg, single oral administration, SHR, average blood pressure by aortic cannula
Protocol: Antihypertensive effect on the spontaneously hypertensive rats Five spontaneous rats (SHR), showing more than […] of systolic blood pressure were used. After a single oral administration, antihypertensive activity of the corresponding compound was evaluated in terms of a decrease in average blood pressure measured by means of a cannula embedded in the aorta.

[4] = Acute toxicity of active compounds (LD50); settings: in vivo
Text: Beta-blocking agents hitherto known have to be given to hypertensive patients for some period before desirable effects are obtained.

[5] = test system: heart rate; test: Influence on the heart rate in unanaesthetized dogs; type: in vivo, dog; settings: 10 mg/kg oral
Protocol: 4. Influence on the heart rate This was measured in dogs under unanaesthesized condition after oral administration of the corresponding compound.

[6] = clinical use; cited from earlier work
[7] = pA2 vs phenylephrine, rat aorta, read-out: α-Blocking effect (pA2) (converted)
[8] = pA2 vs isoproterenol, guinea pig right atrium, read-out: β-Blocking effect (pA2) (converted)

| SMILES | Kb [1, 7] [µM] | Kb [2, 8] [µM] | Antihypertensive effect: decrease in blood pressure [3] [mm Hg] | LD50 ([4]; iv, I.V., read-out: LD50 I.V.) [mg/kg] | LD50 ([4]; po, P.O., read-out: LD50 P.O.) [mg/kg] | Kb [1] [µM] | Kb [2] [µM] | Influence on heart rate: change [5] | orthostatic hypotension (in words) [6] |
| --- | --- | --- | --- | --- | --- | --- | --- | --- | --- |
| CC(COc1ccccc1)NCC(O)COc1c[nH]c(=O)c2ccccc12.Cl (centres unmarked) [4-[3-(1-methyl-2-phenoxyethyl-amino)-2-hydroxypropoxy]isocarbostyril hydrochloride] | 0.0269 | 0.0132 | 15 | – | – | – | – | – | – |
| CC(COc1ccc([N+](=O)[O-])cc1)NCC(O)COc1c[nH]c(=O)c2ccccc12.Cl (centres unmarked) [4-[3-{1-methyl-2-(4-nitrophenoxy)ethylamino}-2-hydroxypropoxy]isocarbostyril hydrochloride] | – | 0.0372 | 17 | – | – | – | – | – | – |
| COc1ccc(OCC(C)NCC(O)COc2c[nH]c(=O)c3ccccc23)c(OC)c1.Cl (centres unmarked) [4-[3-{2-(2,4-dimethoxyphenoxy)-1-methylethylamino}-2-hydroxypropoxy]isocarbostyril hydrochloride] | 0.0631 | 0.0055 | 32 | 118 | > 2000 | – | – | – | – |
| CC(COc1ccccc1C(N)=O)NCC(O)COc1c[nH]c(=O)c2ccccc12 (centres unmarked) [4-[3-{2-(2-carbamoylphenoxy)-1-methylethylamino}-2-hydroxypropy]isocarbostyril] | – | 0.0148 | 10 | – | – | – | – | – | – |
| COc1ccccc1OCC(C)NCC(O)COc1c[nH]c(=O)c2ccccc12.Cl (centres unmarked) [4-[3-{2-(2-methoxyphenoxy)-1-methylethylamino}-2-hydroxypropoxy]isocarbostyril hydrochloride] | 0.0195 | 0.0107 | 35 | – | – | – | – | – | – |
| CC(COc1ccc(N)cc1)NCC(O)COc1c[nH]c(=O)c2ccccc12.Cl (centres unmarked) [4-[3-{2-(4-aminophenoxy)-1-methylethylamino}-2-hydroxypropoxy]isocarbostyril hydrochloride] | – | 0.00724 | 31 | – | – | – | – | – | – |
| CC(COc1ccc(N)cc1)NCC(O)COc1c[nH]c(=O)c2ccccc12 (centres unmarked) [4-[3-{2-(4-aminophenoxy)-1-methylethylamino}-2-hydroxypropoxy]isocarbostyril] | – | – | – | 77.4 | > 2000 | – | – | – | – |
| CC(COc1ccc(O)cc1)NCC(O)COc1c[nH]c(=O)c2ccccc12 (centres unmarked) [4-[3-{2-(4-hydroxyphenoxy)-1-methylethylamino{-2-hydroxy-propoxy]isocarbostyril] | 0.102 | 0.00295 | 26 | 163 | > 2000 | – | – | – | – |
| COc1ccc(OCC(C)NCC(O)COc2c[nH]c(=O)c3ccccc23)cc1.Cl (centres unmarked) [4-[3-{2-(4-methoxyphenoxy)-1-methylethylamino}-2-hydroxypropoxy]isocarbostyril hydrochloride] | – | 0.00955 | 21 | 137 | > 2000 | – | – | – | – |
| CC(CCc1ccccc1)NCC(O)c1ccc(O)c(C(N)=O)c1 (centres unmarked) [Labetalol, reference compound] | – | – | 31 | – | – | 0.0417 | 0.038 | Increase | serious adverse reaction |
| CC(C)NCC(O)COc1cccc2ccccc12 (centres unmarked) [Propranolol, reference compound] | – | – | 3 | – | – | – | – | Decrease | – |

Source: US4526893A, “Isocarbostyril derivatives” (priority 1982, dated 1985)
